Results as given in paper PMC8747035, “Design, Synthesis, and Biological Evaluation of 5,6,7,8-Tetrahydrobenzo[4,5]thieno[2,3-d]pyrimidines as Microtubule Targeting Agents” (Molecules, 2022).
“Also recorded” adds a separate entry of the source. Like-named read-outs stand apart in the source and are kept apart here.

Legend:
Bovine brain tubulin = experiment: Inhibition of purified tubulin assembly (turbidity); assay type: biochemical; conditions: 10 µM tubulin, 30 °C; read-out: Inhibition of Tubulin Assembly IC50 ± SD
Protocol: (§1) Bovine brain tubulin was purified as described previously. The tubulin assembly assay has been described in detail. Briefly, 1.0 mg/mL of tubulin (10 µM) was preincubated for 15 min at 30 °C in 0.8 M monosodium glutamate (pH of 2 M stock solution adjusted to 6.6 with HCl), varying compound concentrations and 4% (v/v) DMSO as compound solvent. After the preincubation, the reaction mixtures were placed on ice and 0.4 mM GTP was added. The reaction mixtures were transferred to cuvettes at 0 °C in a recording spectrophotometer equipped with an electronic temperature controller. After baselines were established, the temperature was elevated over about 30 s to 30 °C, and changes in turbidity were monitored at 350 nm for 20 min. The compound concentration that caused a 50% reduction in increase in turbidity, interpolated from the values obtained with defined compound concentrations, was defined as the IC50 value. The assay to measure inhibition of [^3H]colchicine binding was described in detail previously. Briefly, 0.1 mg/mL (1.0 µM) tubulin was incubated at 37 °C with 5.0 µM [3H]colchicine and potential inhibitors at 5.0 µM. Incubation was for 10 min, at which point the reaction had reached 40–60% of the maximum colchicine that can be bound in reaction mixtures without inhibitor. The [^3H]colchicine was a product of PerkinElmer, USA. CA-4 was a generous gift of Dr. G. R. Pettit, Arizona State University.

A-10 cells = experiment: Cellular microtubule depolymerization in A-10 cells (immunofluorescence); assay type: cell-based; conditions: for EC50: Rattus norvegicus, A10, 18 h, loss of 50% of interphase microtubules; for Microtubule depolymerization activity in A-10 cells: at a 10 µM concentration
Protocol: (§2) We investigated the microtubule depolymerization and the antiproliferative activities of compounds 4–14 (Table 2). […] We next evaluated the importance of the 4′-OMe group of compound 4 by replacing it with an isosteric 4′-SMe (5). […] Clearly, this further substantiated the importance of an S in the scaffold over an NH.
The effects of the compounds on cellular microtubules were evaluated in A-10 cells using indirect immunofluorescence microscopy. These cells were obtained from the American Type Culture Collection (ATCC) (Manassas, VA, USA). Cells were treated with the compounds of interest for 18 h, and the cells fixed with cold MeOH and microtubule structures were visualized using a β-tubulin antibody (Sigma-Aldrich, St. Louis, MO, USA). The concentration that caused loss of 50% of the interphase microtubules was defined as the EC50 and calculated as previously described. These values represent an average of at least three independent experiments.

MDA-MB-435 cells = experiment: Antiproliferative SRB assay in MDA-MB-435 cells; assay type: cell-based, human; conditions: read-out: IC50 ± SD in MDA-435 Cells
Protocol: as §2
(§3) The antiproliferative and cytotoxic effects of the compounds in cancer cells were evaluated using the SRB assay as previously described. MDA-MB-435 cells were obtained from the Lombardi Cancer Center of Georgetown University (Washington, DC, USA). SK-OV-3 and HeLa cells were purchased from ATCC. Details about the generation of the SK-OV-3 MDR1-M6/6 and HeLa WTβIII cells were described previously. The IC50 values represent an average of three independent experiments, each conducted using triplicate points.
(§4) HeLa, A-10, SK-OV-3, and SK-OV-3 MDR1-M6/6 cells were grown in Basal Medium Eagle (Sigma-Aldrich, St. Louis, MO, USA) supplemented with 10% FBS (Hyclone, GE Life Sciences, Logan, UT, USA) 1% GlutaMAX (Gibco, Life Technologies, Waltham, MA, USA) and 50 µg/mL gentamycin (Life Technologies, USA). HeLa WTβIII cells were grown in Dulbecco’s Modified Eagle Medium (Life Technologies) supplemented with 10% FBS and 50 µg/mL gentamycin. MDA-MB-435 cells were maintained in Improved Minimum Essential Medium (Life Technologies) supplemented with 10% FBS and 25 µg/mL gentamycin. All cells were grown at 37 °C in a humidified environment with 5% CO2.

SK-OV-3 MDR1-M6/6 cells = experiment: SRB assay in Pgp-expressing SK-OV-3 MDR1-M6/6 cells; assay type: cell-based; conditions: Homo sapiens, SKOV3-MDR1-M6/6, read-out: IC50 ± SD in SK-OV-3 MDR1-M6/6 Cells
Protocol: (§5) Comparison of the IC50 values in the parental SK-OV-3 and genetically manipulated SK-OV-3 MDR1-M6/6 cell line allows for the calculation of a relative resistance value, designated Rr. This value is calculated by dividing the IC50 value obtained in the Pgp-expressing SK-OV-3 MDR1-M6/6 cells by the IC50 obtained in the parental SK-OV-3 cells.
as §3, §4

HeLa cells = experiment: SRB assay in HeLa cells; assay type: cell-based; conditions: Homo sapiens, read-out: IC50 ± SD in HeLa
Protocol: (§6) Compounds 4–8, 10, 12, and 13 were evaluated for their abilities to overcome βIII-tubulin mediated drug resistance using an isogenic HeLa cell line pair (Table 4). […] The Rr values (Table 4) were calculated by dividing the IC50 of the βIII-tubulin expressing line by the IC50 obtained in the parental HeLa cells.
as §3, §4

SK-OV-3 cells = experiment: SRB assay in SK-OV-3 cells; assay type: cell-based; conditions: Homo sapiens, read-out: IC50 ± SD in SK-OV-3 Cells
Protocol: as §5, §3, §4

HeLa WTβIII cells = experiment: SRB assay in βIII-tubulin expressing HeLa WTβIII cells; assay type: cell-based; conditions: Homo sapiens, read-out: IC50 ± SD in HeLa WTβ3
Protocol: as §6, §3, §4

tubulin = experiment: Inhibition of [3H]colchicine binding to tubulin; set-up: species or system Bovine; conditions: compound at 5 μM, 5.0 µM [3H]colchicine, 1.0 µM tubulin
Protocol: as §1, with “Incubation was for 10 min, at which point the reaction had reached 40–60% of the maximum colchicine that can be bound in reaction mixtures without inhibitor.” left out, “USA.” for “USA. CA-4 was a generous gift of Dr. G. R. Pettit, Arizona State University.”

MDA-MB-435 tumors = experiment: MDA-MB-435 xenograft model; assay type: in vivo, nude mice; conditions: 15 mg/kg i.p. 3 times a week
Protocol: Compound 4 was selected for further evaluation in an in vivo xenograft mouse study in light of its nanomolar potency in vitro in the NCI-60 cancer cell line panel and its potent microtubule depolymerization activity. The in vivo effects of 4 were tested in the MDA-MB-435 xenograft model (Figure 5).
MDA-MB-435 tumor fragments were implanted s.c. into the flanks of female nude mice. […] Compound 4 was dissolved in a 50:50 Cremophor EL/DMSO mixture and further dissolved in PBS for a final concentration of 10:10:80 Cremophor EL:DMSO:PBS (v/v). […] Tumor volumes and mouse weights were measured 2–3 times a week. A two-way ANOVA with Dunnett’s post-hoc tests including all treatment groups in the trial was used to determine significant differences in tumor volumes between drug-treated and untreated control groups on each measurement day. These animal studies were performed at the University of Texas Health Science Center in San Antonio in compliance with an approved Institutional Animal Care and Use protocol.
MDA-MB-435 tumors were implanted into the flanks of nude mice and allowed to grow until they reached a volume of ~200 mm^3. […] Tumor volumes and mouse weights were measured 2–3 times a week. Statistical significance was evaluated by two-way ANOVA (time vs. drug) with Dunnett’s post-hoc tests. A statistically significant difference in tumor volume was detected on day 14 between mice treated with 4 (* p = 0.0384) and untreated control tumors.

Compound	IC50 (Bovine brain tubulin)	EC50 (A-10 cells)	IC50 (MDA-MB-435 cells; Homo sapiens)	IC50 (SK-OV-3 MDR1-M6/6 cells)	IC50 (HeLa cells)	IC50 (SK-OV-3 cells)	IC50 (HeLa WTβIII cells)	Inhibition of Colchicine Binding (% inhibition ± SD) (tubulin)	IC50 (MDA-MB-435 cells)	Microtubule depolymerization activity in A-10 cells (A-10 cells)	Antitumor effects on MDA-MB-435 tumor volume vs control (MDA-MB-435 tumors)
COc1ccc(/C=C\c2cc(OC)c(OC)c(OC)c2)cc1O [CA-4, combretastatin A-4]	1000 ± 90 nM	13 nM	3.4 ± 0.6 nM								
CSc1ccc(N(C)c2nc(N)nc3sc4c(c23)CCCC4)cc1 [Compound 5, N4-methyl-N4-(4-(methylthio)phenyl)-5,6,7,8-tetrahydrobenzo[4,5]thieno[2,3-d] pyrimidine-2,4-diamine]	490 ± 80 nM	70 nM	< 40 nM	74.1 ± 11 nM	64.3 ± 4.3 nM	71.8 ± 5.3 nM	44.1 ± 4.8 nM	94.0 ± 2.0%	38.6 ± 5.6 nM		
COc1ccc2c(c1)CCCN2c1nc(N)nc2sc3c(c12)CCCC3 [Compound 6, 4-(6-Methoxy-3,4-dihydroquinolin-1(2H)-yl)-5,6,7,8-tetrahydrobenzo[4,5]thieno[2,3-d]-pyrimidin-2-amine]		121 nM	59.6 ± 11.8 nM	91.7 ± 12 nM	123 ± 12 nM	92.5 ± 3.3 nM	80.3 ± 6.4 nM				
COc1ccc(N(C)c2ncnc3sc4c(c23)CCCC4)cc1 [Compound 7, N-(4-methoxyphenyl)-N-methyl-5,6,7,8-tetrahydrobenzo[4,5]thieno[2,3-d]pyrimidin-4-amine]	490 ± 60 nM	45 nM	< 40 nM	47.1 ± 7.6 nM	57.2 ± 8.5 nM	37 ± 6.2 nM	38 ± 3.9 nM	95.0 ± 0.40%	36.8 ± 5.2 nM		
COc1ccc(N(C)c2nc(C)nc3sc4c(c23)CCCC4)cc1 [Compound 8, N-(4-methoxyphenyl)-N,2-dimethyl-5,6,7,8-tetrahydrobenzo[4,5]thieno[2,3-d]pyrimidin-4-amine]	560 ± 90 nM	52 nM	53 ± 0.3 nM	57.5 ± 0.5 nM	87.9 ± 8.8 nM	47.7 ± 1.2 nM	81.3 ± 5.2 nM	96.0 ± 0.40%			
COc1ccc(Nc2nc(C)nc3sc4c(c23)CCCC4)cc1 [Compound 9, N-(4-methoxyphenyl)-2-methyl-5,6,7,8-tetrahydrobenzo[4,5]thieno[2,3-d]pyrimidin-4-amine]										did not show any activity; also recorded: Not MT active ^c	
CSc1ccc(N(C)c2nc(C)nc3sc4c(c23)CCCC4)cc1 [Compound 10, N,2-dimethyl-N-(4-(methylthio)phenyl)-5,6,7,8-tetrahydrobenzo[4,5]thieno[2,3-d]pyrimidin-4-amine]	540 ± 80 nM	157 nM	87.7 ± 4.7 nM	209 ± 40 nM	146 ± 14 nM	136 ± 15 nM	108 ± 8.6 nM	89.0 ± 0.20%			
CSc1ccc(Nc2nc(C)nc3sc4c(c23)CCCC4)cc1 [Compound 11, 2-Methyl-N-(4-(methylthio)phenyl)-5,6,7,8-tetrahydrobenzo[4,5]thieno[2,3-d]pyrimidin-4-amine]										did not show any activity; also recorded: Not MT active ^c	
COc1ccc2c(c1)CCCN2c1nc(C)nc2sc3c(c12)CCCC3 [Compound 12, 4-(6-Methoxy-3,4-dihydroquinolin-1(2H)-yl)-2-methyl-5,6,7,8-tetrahydrobenzo[4,5]thieno[2,3-d]pyrimidine]		150 nM	125 ± 14 nM	223 ± 9.4 nM	191 ± 8.1 nM	178 ± 1.1 nM	203 ± 12 nM				
COc1cccc2cc(N(C)c3nc(C)nc4sc5c(c34)CCCC5)ccc12 [Compound 13, N-(5-methoxynaphthalen-2-yl)-N,2-dimethyl-5,6,7,8-tetrahydrobenzo[4,5]thieno[2,3-d]pyrimidin-4-amine]		118 nM	81.3 ± 8.4 nM	143 ± 244 nM	170 ± 34 nM	142 ± 22 nM	139 ± 20 nM				
Cc1nc(Nc2ccc3c(O)cccc3c2)c2c3c(sc2n1)CCCC3 [Compound 14, 6-((2-Methyl-5,6,7,8-tetrahydrobenzo[4,5]thieno [2,3-d]pyrimidin-4-yl)amino)naphthalen-1-ol]										did not show any activity; also recorded: Not MT active ^c	
CC(=O)O[C@H]1C(=O)[C@@]2(C)[C@H]([C@H](OC(=O)c3ccccc3)[C@]3(O)C[C@H](OC(=O)[C@H](O)[C@@H](NC(=O)c4ccccc4)c4ccccc4)C(C)=C1C3(C)C)[C@]1(OC(C)=O)CO[C@@H]1C[C@@H]2O [Paclitaxel, paclitaxel, reference compound]					2.8 ± 0.4 nM	5 ± 0.6 nM	24 ± 3 nM				did not reach statistical significance
